Test results reported in PubChem BioAssay (NCI).
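A five-concentration, 48-hour dose response in 96-well plates underlies each endpoint, interpolated linearly between surrounding concentrations. GI50 = concentration required for 50% inhibition of growth. At the TGI there is no net growth.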

Columns and labels:
Test in all cases: NCI-60 cell line screen, 48 h
UACC-257 melanoma = system: UACC-257 melanoma
NCI-H522 lung = system: NCI-H522 lung
COLO 205 colon = system: COLO 205 colon
SF-295 CNS = system: SF-295 CNS
T-47D breast = system: T-47D breast
M14 melanoma = system: M14 melanoma
MDA-MB-231 breast = system: MDA-MB-231 breast
SNB-19 CNS = system: SNB-19 CNS
HOP-92 NSCLC = system: HOP-92 NSCLC
SK-MEL-5 melanoma = system: SK-MEL-5 melanoma
BT-549 breast = system: BT-549 breast

## O=[N+]([O-])/C(C(Cl)=C(Cl)Cl)=C(\SCc1ccccc1)N1CCCCC1
UACC-257 melanoma
  TGI: 77.2 µM
NCI-H522 lung
  TGI: 39 µM
COLO 205 colon
  TGI: 34.8 µM
SF-295 CNS
  TGI: 81.9 µM
T-47D breast
  TGI: 51.1 µM
M14 melanoma
  TGI: 45.6 µM
MDA-MB-231 breast
  TGI: 37.3 µM
SNB-19 CNS
  TGI: > 100 µM
HOP-92 NSCLC
  TGI: 0.529 µM
SK-MEL-5 melanoma
  TGI: 31.4 µM

## CCC1(O)CC2CC(=O)OC2C1O (stereo not drawn)
UACC-257 melanoma
  TGI: > 100 µM
NCI-H522 lung
  TGI: > 100 µM
COLO 205 colon
  TGI: > 100 µM
SF-295 CNS
  TGI: > 100 µM
T-47D breast
  TGI: > 100 µM
M14 melanoma
  TGI: > 100 µM
MDA-MB-231 breast
  TGI: > 100 µM
SNB-19 CNS
  TGI: > 100 µM
HOP-92 NSCLC
  TGI: > 100 µM
SK-MEL-5 melanoma
  TGI: > 100 µM

## Cc1cccc2c(=O)cc(-c3ccccc3)[nH]c12
UACC-257 melanoma
  TGI: > 100 µM
COLO 205 colon
  TGI: 51.5 µM
SF-295 CNS
  TGI: 18.7 µM
M14 melanoma
  TGI: > 100 µM
SNB-19 CNS
  TGI: > 100 µM
SK-MEL-5 melanoma
  TGI: 78.4 µM

## COc1cc(/C=C2\S/C(=N/Nc3nc(-c4ccc(Br)cc4)cs3)NC2=O)cc(OC)c1OC
UACC-257 melanoma
  TGI: 44.9 µM
NCI-H522 lung
  TGI: 30.2 µM
COLO 205 colon
  TGI: 71.3 µM
BT-549 breast
  TGI: 33.8 µM
SF-295 CNS
  TGI: 36.6 µM
M14 melanoma
  TGI: 41.8 µM
MDA-MB-231 breast
  TGI: 47.6 µM
SNB-19 CNS
  TGI: 67.7 µM
HOP-92 NSCLC
  TGI: 18.3 µM
SK-MEL-5 melanoma
  TGI: 20.2 µM

## CC[C@@]1(C[C@H]2C[C@@]3(C(=O)OC)c4[nH]c5ccccc5c4CCN3C2=O)COC2(CCCCC2)O1
UACC-257 melanoma
  TGI: 64.2 µM
NCI-H522 lung
  TGI: > 100 µM
COLO 205 colon
  TGI: > 100 µM
BT-549 breast
  TGI: > 100 µM
SF-295 CNS
  TGI: > 100 µM
T-47D breast
  TGI: > 100 µM
M14 melanoma
  TGI: > 100 µM
MDA-MB-231 breast
  TGI: > 100 µM
SNB-19 CNS
  TGI: > 100 µM
SK-MEL-5 melanoma
  TGI: 41.2 µM

## CCOc1cc2c(cc1O)/C(=N\OC)C[C@@H]1[C@@H]2CC[C@]2(C)[C@@H](O)CC[C@@H]12
UACC-257 melanoma
  TGI: > 48.1 µM
NCI-H522 lung
  TGI: 0.518 µM
COLO 205 colon
  TGI: 40.8 µM
BT-549 breast
  TGI: 40.9 µM
SF-295 CNS
  GI50: 0.242 µM
  TGI: 2.32 µM
M14 melanoma
  TGI: 21.8 µM
MDA-MB-231 breast
  TGI: 44.7 µM
SNB-19 CNS
  TGI: > 100 µM
HOP-92 NSCLC
  TGI: > 96.6 µM
SK-MEL-5 melanoma
  TGI: 12.6 µM

## CC(=O)Nc1ccc(-c2nnc(SCC(=O)Nc3ccc([N+](=O)[O-])cc3)o2)cc1
UACC-257 melanoma
  TGI: 24.7 µM
NCI-H522 lung
  TGI: 20.7 µM
COLO 205 colon
  TGI: 27.3 µM
SF-295 CNS
  TGI: 27.4 µM
M14 melanoma
  TGI: 26.9 µM
HOP-92 NSCLC
  TGI: 37.7 µM
SK-MEL-5 melanoma
  TGI: 25.9 µM

## CCCCCCCCCCCOc1ccc(C(=O)C(=O)c2ccc(OCCCCCCCCCCC)c(OCCCCCCCCCCC)c2)cc1OCCCCCCCCCCC
UACC-257 melanoma
  TGI: > 100 µM
NCI-H522 lung
  TGI: > 100 µM
COLO 205 colon
  TGI: > 100 µM
SF-295 CNS
  TGI: > 100 µM
M14 melanoma
  TGI: > 100 µM
SNB-19 CNS
  TGI: > 100 µM
SK-MEL-5 melanoma
  TGI: > 100 µM

## COC(=O)[C@H](Cc1c[nH]c2ccccc12)NP(=O)(O)OCC1C=CC(n2cc(C)c(=O)[nH]c2=O)O1 (stereo partly drawn)
COLO 205 colon
  TGI: > 100 µM
BT-549 breast
  TGI: > 100 µM
T-47D breast
  TGI: > 100 µM
MDA-MB-231 breast
  TGI: > 100 µM
SNB-19 CNS
  TGI: > 100 µM
HOP-92 NSCLC
  TGI: > 100 µM
SK-MEL-5 melanoma
  TGI: > 100 µM

## Cc1cc(O)c2c(=O)c3ccccc3[nH]c2c1
UACC-257 melanoma
  TGI: 54.2 µM
NCI-H522 lung
  TGI: 16 µM
COLO 205 colon
  TGI: 42 µM
BT-549 breast
  TGI: 85.3 µM
SF-295 CNS
  TGI: 51.2 µM
M14 melanoma
  TGI: 52.6 µM
MDA-MB-231 breast
  TGI: > 100 µM
SNB-19 CNS
  TGI: > 100 µM
HOP-92 NSCLC
  TGI: > 100 µM
SK-MEL-5 melanoma
  TGI: 31.1 µM

## NC(=O)C(c1ccccc1)N1OC2C(=O)N(c3ccccc3)C(=O)C2C1c1c2ccccc2c(Cl)c2ccccc12 (stereo not drawn)
NCI-H522 lung
  TGI: > 100 µM
COLO 205 colon
  TGI: > 100 µM
BT-549 breast
  TGI: > 100 µM
SF-295 CNS
  TGI: > 100 µM
T-47D breast
  TGI: > 100 µM
M14 melanoma
  TGI: > 100 µM
MDA-MB-231 breast
  TGI: > 100 µM
SNB-19 CNS
  TGI: > 100 µM
HOP-92 NSCLC
  TGI: > 100 µM
SK-MEL-5 melanoma
  TGI: > 100 µM

## C(/c1ccco1)=c1/nc(-c2ccccc2)n2c1nc1ccccc12
UACC-257 melanoma
  TGI: > 100 µM
COLO 205 colon
  TGI: > 100 µM
BT-549 breast
  TGI: 94.4 µM
SF-295 CNS
  TGI: > 100 µM
T-47D breast
  TGI: > 100 µM
M14 melanoma
  TGI: > 100 µM
MDA-MB-231 breast
  TGI: > 100 µM
SNB-19 CNS
  TGI: > 100 µM
HOP-92 NSCLC
  TGI: > 100 µM
SK-MEL-5 melanoma
  TGI: > 100 µM

## Cc1cn(C2CC(N(O)C(N)=O)C(CO)O2)c(=O)[nH]c1=O (stereo not drawn)
NCI-H522 lung
  TGI: > 100 µM
COLO 205 colon
  TGI: > 100 µM
SF-295 CNS
  TGI: > 100 µM
T-47D breast
  TGI: > 100 µM
M14 melanoma
  TGI: > 100 µM
MDA-MB-231 breast
  TGI: > 100 µM
SNB-19 CNS
  TGI: > 100 µM
HOP-92 NSCLC
  TGI: > 100 µM
SK-MEL-5 melanoma
  TGI: > 100 µM

## COc1cc([C@@H]2OCC3C(c4ccc5c(c4)OCO5)OCC32)cc(OC)c1OC (stereo partly drawn)
NCI-H522 lung
  TGI: > 100 µM
COLO 205 colon
  TGI: > 100 µM
SF-295 CNS
  TGI: > 100 µM
M14 melanoma
  TGI: > 100 µM
SNB-19 CNS
  TGI: > 100 µM
HOP-92 NSCLC
  TGI: 60.9 µM

## CC1(C)N=C(/C(Cl)=[N+](/[O-])C(=O)c2ccc(F)cc2)C(C)(C)N1O
UACC-257 melanoma
  TGI: 32.3 µM
COLO 205 colon
  TGI: 38.2 µM
SF-295 CNS
  TGI: 78.4 µM
T-47D breast
  TGI: 58.5 µM
M14 melanoma
  TGI: 30.3 µM
MDA-MB-231 breast
  TGI: 33.6 µM
SNB-19 CNS
  TGI: > 100 µM
HOP-92 NSCLC
  TGI: 40 µM
SK-MEL-5 melanoma
  TGI: 30.4 µM

## COc1cc([C@@H]2c3cc4c(cc3[C@@H](Nc3ccc([N+](=O)[O-])cc3C(=O)c3ccccc3)[C@H]3COC(=O)[C@H]23)OCO4)cc(OC)c1OC
UACC-257 melanoma
  TGI: > 100 µM
NCI-H522 lung
  TGI: > 51 µM
SF-295 CNS
  TGI: > 100 µM
T-47D breast
  TGI: > 100 µM
M14 melanoma
  TGI: > 100 µM
SNB-19 CNS
  TGI: > 100 µM
HOP-92 NSCLC
  TGI: > 100 µM

## CCCN=C1CCN(Cc2ccccc2)c2ccccc2N1
UACC-257 melanoma
  TGI: 29.2 µM
NCI-H522 lung
  TGI: 27.9 µM
COLO 205 colon
  TGI: 22.9 µM
BT-549 breast
  TGI: 34.3 µM
SF-295 CNS
  TGI: 95.3 µM
M14 melanoma
  TGI: 31.3 µM
MDA-MB-231 breast
  TGI: 59.9 µM
SNB-19 CNS
  TGI: > 100 µM
SK-MEL-5 melanoma
  TGI: 28.2 µM

## CC(=O)O[C@H]1C(=O)[C@]2(C)[C@@H](OC(=O)OCCC(O)CO)C[C@H]3OC[C@@]3(OC(C)=O)[C@H]2[C@H](OC(=O)c2ccccc2)[C@]2(O)C[C@H](OC(=O)[C@H](O)[C@@H](NC(=O)c3ccccc3)c3ccccc3)C(C)=C1C2(C)C (stereo partly drawn)
UACC-257 melanoma
  TGI: 21.4 µM
NCI-H522 lung
  TGI: < 0.01 µM
BT-549 breast
  TGI: 15.9 µM
SF-295 CNS
  TGI: 1.12 µM
M14 melanoma
  TGI: 7.16 µM
MDA-MB-231 breast
  TGI: 3.7 µM
SNB-19 CNS
  TGI: 88.4 µM
HOP-92 NSCLC
  TGI: 25.2 µM
SK-MEL-5 melanoma
  TGI: 13.1 µM

## CNS(=O)(=O)NNS(=O)(=O)c1ccc2ccccc2c1
UACC-257 melanoma
  TGI: > 100 µM
NCI-H522 lung
  TGI: > 100 µM
COLO 205 colon
  TGI: > 100 µM
SF-295 CNS
  TGI: > 100 µM
M14 melanoma
  TGI: > 100 µM
SNB-19 CNS
  TGI: > 100 µM
SK-MEL-5 melanoma
  TGI: > 100 µM

## CCOC(=O)c1c2ccccc2n2c(N)c(C(N)=O)nnc12
UACC-257 melanoma
  TGI: > 100 µM
NCI-H522 lung
  TGI: > 100 µM
COLO 205 colon
  TGI: > 100 µM
BT-549 breast
  TGI: 89.9 µM
SF-295 CNS
  TGI: > 100 µM
T-47D breast
  TGI: > 100 µM
M14 melanoma
  TGI: > 100 µM
MDA-MB-231 breast
  TGI: 88.6 µM
SNB-19 CNS
  TGI: 91.8 µM
SK-MEL-5 melanoma
  TGI: > 100 µM

## CC1C=C(CCCCCCCCCCCC[C@@H](O)[C@@H]2CC[C@@H]([C@@H]3CC[C@@H](C(O)CCCCCCCCCCCCC4=C[C@H](C)OC4=O)O3)O2)C(=O)O1 (stereo partly drawn)
UACC-257 melanoma
  TGI: > 100 µM
NCI-H522 lung
  TGI: 39.6 µM
COLO 205 colon
  TGI: > 100 µM
SF-295 CNS
  TGI: > 100 µM
M14 melanoma
  TGI: > 100 µM
SNB-19 CNS
  TGI: > 100 µM
HOP-92 NSCLC
  TGI: > 100 µM
SK-MEL-5 melanoma
  TGI: 27.4 µM

## N#CN=C(N(Cc1ccccc1)Cc1ccccc1)N(Cc1ccccc1)Cc1ccccc1
UACC-257 melanoma
  TGI: > 100 µM
NCI-H522 lung
  TGI: > 100 µM
COLO 205 colon
  TGI: > 100 µM
SF-295 CNS
  TGI: > 100 µM
M14 melanoma
  TGI: > 100 µM
SNB-19 CNS
  TGI: > 100 µM
